Consider 39 compounds from patent US20050209278A1, “Piperidinyl- and piperazinyl-sulfonylmethyl hydroxamic acids and their use as protease inhibitors” (priority 2002, published 2005).

Each structure is given as a SMILES string. Like-named read-outs stand apart in the source and are kept apart here.

Experiment [1] addresses T1, MMP-13 (Homo sapiens, UniProt P45452).
T1 construct: made in house; host or cells: baculovirus / insect cells
Briefly: In vitro MMP inhibition, Ki determination (fluorogenic substrate II). The class given is biochemical. The following applies: read-out: MMP-13 Ki. The method, boiled down: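 Ki determined with human recombinant MMP-13, baculovirus-expressed as proenzyme and activated with APMA. Fluorogenic MCA/Dpa substrate II at 4 μM (at or below Km) with low enzyme in Tris buffer pH 7.5 with CaCl2. Incubation was 1 h at room temperature, with fluorescence read at 330/420 nm.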

The target of experiment [2] is T2, MMP-14 (Homo sapiens, UniProt P50281).
T2 construct: The catalytic domain enzyme was expressed in E. coli inclusion bodies, solubilized in urea; made in house
Described as above. Format: biochemical. Conditions: read-out: MMP-14 Ki. The method, boiled down: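 E. coli-expressed, refolded MMP-14 catalytic domain, activated with APMA or trypsin, in 100 mM Tris-HCl pH 7.5, 100 mM NaCl, 10 mM CaCl2, 0.05% Brij-type detergent. Apparent Ki by Morrison-equation regression of velocity vs inhibitor and enzyme concentration.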

On to `CCCCCc1ccc(N2CCN(S(=O)(=O)C3(C(=O)NO)CCN(c4ncccn4)CC3)CC2)nc1` [Example 95], for which the Ki (commonly the equilibrium dissociation constant of an inhibitor or competing ligand from its target) in experiment [1] (value not in parenthesis) came out at 0.68 nM; in experiment [2] (value not in parenthesis), 597 nM.

Turning to `CCCCc1ccc(N2CCN(S(=O)(=O)C3(C(=O)NO)CCN(c4cccnc4)CC3)CC2)nc1` [Example 96], the inhibitory constant (Ki) is 0.44 nM in experiment [1] (value not in parenthesis) and 816 nM in experiment [2] (value not in parenthesis).

As to `CCCCOc1ccc(N2CCN(S(=O)(=O)C3(C(=O)NO)CCN(C(=O)OCC(C)(C)C)CC3)CC2)cc1` [Example 97], the figures for the Ki in experiment [1] (value not in parenthesis) and in experiment [2] (value not in parenthesis) were 21.9 nM and more than 10000 nM, respectively.

In the case of `C#CCOC(=O)N1CCC(C(=O)NO)(S(=O)(=O)N2CCN(c3ccc(OCCCC)cc3)CC2)CC1` [Example 98], the Ki in experiment [1] (value not in parenthesis) was 0.38 nM; in experiment [2] (value not in parenthesis), 1620 nM.

With `CCCCc1ccc(N2CCN(S(=O)(=O)C3(C(=O)NO)CCN(c4ncccn4)CC3)CC2)nc1` [Example 99], the values for the Ki in experiment [1] (value not in parenthesis) and in experiment [2] (value not in parenthesis) were 0.3 nM and 225 nM, respectively.

Regarding `CCCCOc1ccc(N2CCN(S(=O)(=O)C3(C(=O)NO)CCOCC3)CC2)nc1` [Example 100], the Ki in experiment [1] (value not in parenthesis) is 0.06 nM; in experiment [2] (value not in parenthesis) it was 411 nM.

For the compound `CCCCOc1ccc(N2CCN(S(=O)(=O)C3(C(=O)NO)CCN(c4ccc(Cl)c(Cl)c4)CC3)CC2)cc1` [Example 250], the results for the Ki in experiment [1] (value not in parenthesis) and in experiment [2] (value not in parenthesis) were 18.4 nM and more than 10000 nM, respectively.

Regarding `CCCCOc1ccc(N2CCN(S(=O)(=O)C3(C(=O)NO)CCN(c4ccc(Cl)cc4)CC3)CC2)cc1` [Example 251], the Ki in experiment [1] (value outside parentheses) is 12.9 nM; in experiment [2] (value outside parentheses), more than 10000 nM.

With `CCCCOc1ccc(N2CCN(S(=O)(=O)C3(C(=O)NO)CCN(Cc4ccco4)CC3)CC2)cc1` [Example 252], the Ki in experiment [1] (value outside parentheses) was 0.373 nM; in experiment [2] (value outside parentheses), 5180 nM.

With `CCCCOc1ccc(N2CCN(S(=O)(=O)C3(C(=O)NO)CCN(C(N)=O)CC3)CC2)cc1` [Example 253], the results for the Ki in experiment [1] (value outside parentheses) and in experiment [2] (value outside parentheses) were 0.357 nM and 1930 nM, respectively.

On to `CCCCOc1ccc(N2CCN(S(=O)(=O)C3(C(=O)NO)CCN(C(=O)N(C)C)CC3)CC2)cc1` [Example 254], for which the Ki in experiment [1] (value outside parentheses) amounted to 0.1 nM; in experiment [2] (value outside parentheses), 856 nM.

For `CCCCOc1ccc(N2CCN(S(=O)(=O)C3(C(=O)NO)CCN(C(=O)c4ccccc4)CC3)CC2)cc1` [Example 255], the Ki turned out to be 0.39 nM in experiment [1] (value outside parentheses) and 5660 nM in experiment [2] (value outside parentheses).

As for `CCCCOc1ccc(N2CCN(S(=O)(=O)C3(C(=O)NO)CCN(c4ccc(C(F)(F)F)cn4)CC3)CC2)cc1` [Example 257], the Ki is 12.9 nM in experiment [1] (value outside parentheses) and more than 10000 nM in experiment [2] (value outside parentheses).

As for `O=C(NO)C1(S(=O)(=O)N2CCN(c3ccc(SC(F)(F)F)cc3)CC2)CCS(=O)(=O)CC1` [Example 258], the Ki was 30.5 nM in experiment [1] (value outside parentheses) and 4890 nM in experiment [2] (value outside parentheses).

`CCCCOc1ccc(N2CCN(S(=O)(=O)C3(C(=O)NO)CCN(C(=O)c4ccncc4)CC3)CC2)cc1` [Example 259]: the inhibition constant Ki in experiment [1] (value outside parentheses) was determined as 0.359 nM; in experiment [2] (value outside parentheses), 2650 nM.

`CCCCOc1ccc(N2CCN(S(=O)(=O)C3(C(=O)NO)CCN(C(=O)C4CC4)CC3)CC2)cc1` [Example 260]: the Ki in experiment [1] (value outside parentheses) was 0.301 nM; in experiment [2] (value outside parentheses), 2800 nM.

As for `CCc1ccc(N2CCN(S(=O)(=O)C3(C(=O)NO)CCCC3)CC2)nc1` [Example 261], the figures for the Ki in experiment [1] (value outside parentheses) and in experiment [2] (value outside parentheses) were 0.458 nM and 48.1 nM, respectively.

Regarding `CCc1ccc(N2CCN(S(=O)(=O)C3(C(=O)NO)CCCCC3)CC2)nc1` [Example 263], the figures for the inhibitory constant (Ki) in experiment [1] (value outside parentheses) and in experiment [2] (value outside parentheses) were 0.262 nM and 34 nM, respectively.

On to `CCCCOc1ccc(N2CCN(S(=O)(=O)C3(C(=O)NO)CCN(c4ccccc4)CC3)CC2)cc1` [Example 264], for which the Ki in experiment [1] (value outside parentheses) is 0.048 nM; in experiment [2] (value outside parentheses), more than 10000 nM.

Consider `CCCCOc1ccc(N2CCN(S(=O)(=O)C3(C(=O)NO)CCN(C(=O)CC(F)(F)F)CC3)CC2)cc1` [Example 265], for which the Ki was determined as 0.637 nM in experiment [1] (value outside parentheses) and 3790 nM in experiment [2] (value outside parentheses).

As to `CCCCOc1ccc(N2CCN(S(=O)(=O)C3(C(=O)NO)CCN(C(=O)c4cccnc4)CC3)CC2)cc1` [Example 266], the Ki worked out at 0.308 nM in experiment [1] (value outside parentheses) and 2390 nM in experiment [2] (value outside parentheses).

Regarding `CCCCOc1ccc(N2CCN(S(=O)(=O)C3(C(=O)NO)CCN(C(=O)C(C)(C)C)CC3)CC2)cc1` [Example 267], the Ki in experiment [1] (value outside parentheses) was 0.64 nM; in experiment [2] (value outside parentheses), more than 10000 nM.

For `CCCCOc1ccc(N2CCN(S(=O)(=O)C3(C(=O)NO)CCN(C(=O)COC)CC3)CC2)cc1` [Example 268], the inhibition constant (Ki) in experiment [1] (value outside parentheses) was 0.311 nM; in experiment [2] (value outside parentheses) it was 1390 nM.

On to `CCCCOc1ccc(N2CCN(S(=O)(=O)C3(C(=O)NO)CCN(C=O)CC3)CC2)cc1` [Example 269], for which the Ki in experiment [1] (value outside parentheses) was 0.25 nM; in experiment [2] (value outside parentheses), 1200 nM.

In the case of `CCCCc1ccc(N2CCN(S(=O)(=O)C3(C(=O)NO)CCN(CCOC)CC3)CC2)nc1` [Example 270], the results for the Ki in experiment [1] (value outside parentheses) and in experiment [2] (value outside parentheses) were 0.339 nM and 1110 nM, respectively.

`CCCCOc1ccc(N2CCN(S(=O)(=O)C3(C(=O)NO)CCN(C(=O)CO)CC3)CC2)cc1` [Example 271]: the values for the Ki in experiment [1] (value outside parentheses) and in experiment [2] (value outside parentheses) were 0.452 nM and 1460 nM, respectively.

For the compound `CCCCCc1ccc(N2CCN(S(=O)(=O)C3(C(=O)NO)CCN(C4CC4)CC3)CC2)cc1` [Example 272], the Ki in experiment [1] (value outside parentheses) amounted to 0.33 nM; in experiment [2] (value outside parentheses), 4350 nM.

`CCCCOc1ccc(N2CCN(S(=O)(=O)C3(C(=O)NO)CCN(C(=O)C(C)C)CC3)CC2)cc1` [Example 273]: the Ki was 0.313 nM in experiment [1] (value outside parentheses) and 5090 nM in experiment [2] (value outside parentheses).

Take `CCCCOc1ccc(N2CCN(S(=O)(=O)C3(C(=O)NO)CCN(C(=O)CC)CC3)CC2)cc1` [Example 274]: the Ki is 0.484 nM in experiment [1] (value outside parentheses) and 3030 nM in experiment [2] (value outside parentheses).

As to `CCCCOc1ccc(N2CCN(S(=O)(=O)C3(C(=O)NO)CCN(c4ccc(C)nn4)CC3)CC2)cc1` [Example 275], the Ki in experiment [1] (value outside parentheses) was determined as 0.216 nM; in experiment [2] (value outside parentheses) it was 818 nM.

With `CCCCOc1ccc(N2CCN(S(=O)(=O)C3(C(=O)NO)CCNCC3)CC2)cc1` [Example 276], the Ki in experiment [1] (value outside parentheses) was 2.49 nM; in experiment [2] (value outside parentheses) it was more than 10000 nM.

As for `CCCCOc1ccc(N2CCN(S(=O)(=O)C3(C(=O)NO)CCN(C(=O)c4ccccn4)CC3)CC2)cc1` [Example 277], the Ki in experiment [1] (value outside parentheses) was found to be 0.23 nM; in experiment [2] (value outside parentheses) it was 3020 nM.

For the compound `CCCCOc1ccc(N2CCN(S(=O)(=O)C3(C(=O)NO)CCN(C(=O)CCCC)CC3)CC2)cc1` [Example 278], the Ki in experiment [1] (value outside parentheses) was found to be 0.49 nM; in experiment [2] (value outside parentheses), 5260 nM.

Turning to `CC(C)CCOc1ccc(N2CCN(S(=O)(=O)C3(C(=O)NO)CCOCC3)CC2)cc1` [Example 279], the values for the Ki in experiment [1] (value outside parentheses) and in experiment [2] (value outside parentheses) were 0.32 nM and 4270 nM, respectively.

Take `CCCCOc1ccc(N2CCN(S(=O)(=O)C3(C(=O)NO)CCN(C)CC3)CC2)cc1` [Example 280]: the Ki in experiment [1] (value outside parentheses) came out at 1.02 nM; in experiment [2] (value outside parentheses) it was 7310 nM.

As to `CCCCOc1ccc(N2CCN(S(=O)(=O)C3(C(=O)NO)CCN(c4ccc(Cl)nn4)CC3)CC2)cc1` [Example 281], the Ki in experiment [1] (value outside parentheses) is 0.442 nM; in experiment [2] (value outside parentheses), 1630 nM.

Turning to `CCCCOc1ccc(N2CCN(S(=O)(=O)C3(C(=O)NO)CCN(C(C)=O)CC3)CC2)cc1` [Example 282], the Ki is 0.27 nM in experiment [1] (value outside parentheses) and 1480 nM in experiment [2] (value outside parentheses).

Take `CCCCOc1ccc(N2CCN(S(=O)(=O)C3(C(=O)NO)CCN(c4ccc(O)nn4)CC3)CC2)cc1` [Example 283]: the Ki in experiment [1] (value outside parentheses) came to 0.19 nM; in experiment [2] (value outside parentheses) it was 549 nM.

Regarding `CCCCOc1ccc(N2CCN(S(=O)(=O)C3(C(=O)NO)CCN(CCOC)CC3)CC2)c(F)c1` [Example 284], the Ki was 0.12 nM in experiment [1] (value outside parentheses) and 2770 nM in experiment [2] (value outside parentheses).
